Series [1] can be described thus: Differential index, LC50 for rat NRK 52E cells to LC50 for mouse 3LL cells. The class given is ADME, cell-based. Particulars: NRK 52E cells versus 3LL cells.
Series [2] in a line: Cytotoxicity against rat N-ras transformed NRK N/4.2 cells after 5 days. The class given is cell-based. The conditions noted are these: NRK N/4.2, 120 h, read-out: LC50 (the source's name).
The nature of series [3]: Cytotoxicity against mouse 3LL cells after 5 days. The conditions noted are these: 120 h, read-out: LC50 (the source's name). The class given is cell-based.
A short description of series [4]: Differential index, LC50 for rat NRK 52E cells to LC50 for rat N-ras transformed NRK N/4.2 cells. It is filed as ADME, cell-based. Particulars: NRK 52E cells versus N-ras transformed NRK N/4.2 cells.
A short description of series [5]: Cytotoxicity against rat NRK 52E cells after 5 days. It is filed as cell-based. The conditions noted are these: read-out: LC50.
Series [6] is described as follows: Cytotoxicity against rat H-ras transformed NRK H/1.2 cells after 5 days. It is filed as cell-based. The conditions noted are these: NRK H/1.2, 120 h, read-out: LC50 (the source's name).
The nature of series [7]: Differential index, LC50 for rat NRK 52E cells to LC50 for rat K-ras transformed NRK K/1 cells. It is filed as ADME, cell-based. The conditions noted are these: NRK 52E cells versus K-ras transformed NRK K/1 cells.
The nature of series [8]: Cytotoxicity against rat K-ras transformed NRK K/1 cells after 5 days. It is filed as cell-based. The conditions noted are these: NRK K/1, 120 h, read-out: LC50 (the source's name).
The nature of series [9]: Differential index, LC50 for rat NRK 52E cells to LC50 for rat H-ras transformed NRK H/1.2 cells. The class given is ADME, cell-based. The conditions noted are these: NRK 52E cells versus H-ras transformed NRK H/1.2 cells.
The nature of series [10]: Toxicity in mouse. The class given is organism-based. Particulars: in vivo.

On to `CC(=O)NC1=CC(=O)c2ccc(-c3nc(C(=O)OCCN(C)C)cc4c3[nH]c3ccccc34)nc2C1=O`, for which the selectivity ratio was determined as 0.7 in series [1], 1.3 in series [4], 2.6 in [7] and 1.5 in [9]. For the same molecule, the CC50 in series [2] stood at 290 nM; in series [3], 500 nM; in [6], 240 nM; in [8] it was 140 nM. In series [5], the CC50 at 120 h stood at 370 nM.
As for `CCCCOC(=O)c1cc2c([nH]c3ccccc32)c(-c2ccc3c(n2)C(=O)C(NC(=O)C(C)C)=CC3=O)n1`, the selectivity ratio came to 1 in [1], 1.8 in series [4], 2.3 in series [7] and 1.5 in [9]. Also, the CC50 was 500 nM in series [2], 900 nM in series [3], 610 nM in series [6] and 400 nM in series [8]. Moreover, the CC50 at 120 h in series [5] amounted to 900 nM.
For `CCCC(=O)NC1=CC(=O)c2ccc(-c3nc(C(=O)OCCC(C)C)cc4c3[nH]c3ccccc34)nc2C1=O`, the selectivity ratio came to 0.4 in [1], 1.5 in series [4], 1.6 in series [7] and 2.7 in series [9]. Besides, the CC50 in [2] worked out at 650 nM; in series [3], 2400 nM; in [6], 370 nM; in series [8], 600 nM. The CC50 at 120 h in series [5] is 1000 nM.
For the molecule `CC(=O)NC1=CC(=O)c2ccc(C)nc2C1=O`, the CC50 is 2000 nM in [3], 4400 nM in [6] and 5900 nM in [8]. Also, the CC50 at 120 h in series [5] was 2400 nM. This molecule also showed an MTD in series [10] below 10 mg/kg.
On to `CCCCOC(=O)c1cc2c([nH]c3ccccc32)c(-c2ccc3c(n2)C(=O)C(NC(=O)CCl)=CC3=O)n1`, for which the selectivity ratio is 0.4 in [1], 0.9 in [4], 1.8 in [7] and 1.3 in series [9]. For the same molecule, the CC50 came to 1050 nM in [2], 2300 nM in series [3], 740 nM in series [6] and 520 nM in [8]. In series [5], the CC50 at 120 h was 960 nM.
Turning to `CC(=O)NC1=CC(=O)c2ccc(-c3nc(C(=O)OCc4ccccc4)cc4c3[nH]c3ccccc34)nc2C1=O`, the selectivity ratio was below 0.3 in series [1], below 0.3 in series [4], 1 in series [7] and below 0.9 in series [9]. In addition, the CC50 in series [2] was above 33000 nM; in series [3], above 33000 nM; in series [6], above 10000 nM; in series [8], 9500 nM. Besides, the CC50 at 120 h in series [5] stood at 9500 nM.
For `CC(=O)NC1=CC(=O)c2ccc(-c3nc(C(=O)OC4CCCCC4)cc4c3[nH]c3ccccc34)nc2C1=O`, the selectivity ratio turned out to be 0.7 in series [1], 1 in series [4], 1.7 in series [7] and 1 in series [9]. Besides, the CC50 was 700 nM in series [2], 1000 nM in [3], 690 nM in series [6] and 400 nM in series [8]. For the same molecule, the CC50 at 120 h in series [5] is 700 nM.
With `CCCC(=O)NC1=CC(=O)c2ccc(C)nc2C1=O`, the CC50 in series [2] was above 3300 nM; in series [3] it was 2500 nM; in series [6] it was above 3300 nM; in series [8], above 3300 nM. Also, the CC50 at 120 h in series [5] amounted to 2000 nM. Moreover, the MTD in [10] was below 10 mg/kg.
Consider `CC(=O)NC1=CC(=O)c2ccc(-c3[nH]c(C(=O)O)cc4c5ccccc5nc3-4)nc2C1=O`, for which the selectivity ratio in [1] came to 0.4; in [4], 1.5; in series [7], 2.1; in [9], 1.4. The CC50 in series [2] was found to be 100 nM; in [3], 400 nM; in [6], 110 nM; in [8], 70 nM. The CC50 at 120 h in series [5] was 150 nM.
In the case of `CCCCOC(=O)c1cc2c([nH]c3ccccc32)c(-c2ccc3c(n2)C(=O)C(NC(=O)CCC)=CC3=O)n1` [LAV12], the selectivity ratio in series [1] was determined as 0.3; in [4], 0.9; in series [7], 1.3; in series [9], 1.6. The CC50 in series [2] turned out to be 700 nM; in series [3], 2300 nM; in series [6], 400 nM; in series [8] it was 500 nM. Besides, the CC50 at 120 h in [5] was 660 nM.
As to `CCCCOC(=O)c1cc2c([nH]c3ccc(OC)cc32)c(-c2ccc3c(n2)C(=O)C(NC(C)=O)=CC3=O)n1`, the selectivity ratio in [1] was below 0.7; in series [4], 1.1; in series [7], 1.1; in series [9], 1.2. The CC50 in [2] is 2200 nM; in series [3], above 3300 nM; in series [6] it was 2100 nM; in series [8], 2200 nM. In addition, the CC50 at 120 h in series [5] was determined as 2500 nM.
As to `CCOC(=O)c1cc2c([nH]c3ccccc32)c(-c2ccc3c(n2)C(=O)C(NC(C)=O)=CC3=O)n1`, the selectivity ratio was 0.1 in series [1], 0.7 in [4], 7.5 in series [7] and 0.8 in series [9]. Also, the CC50 was 200 nM in [2], 3200 nM in series [3], 360 nM in series [6] and 40 nM in [8]. In addition, the CC50 at 120 h in series [5] was determined as 300 nM.
With `CC(=O)NC1=CC(=O)c2ccc(-c3[nH]c(CO)cc4c5ccccc5nc3-4)nc2C1=O`, the selectivity ratio in series [1] worked out at 0.6; in [4], 1.1; in [7], 1.2; in [9] it was 1.2. Moreover, the CC50 in [2] came out at 220 nM; in series [3], 440 nM; in [6], 200 nM; in [8], 200 nM. Further, the CC50 at 120 h in [5] is 250 nM.
Consider `CC(=O)NC1=CC(=O)c2ccc(-c3[nH]ccc4c5ccccc5nc3-4)nc2C1=O`, for which the selectivity ratio in series [1] is 0.1; in series [4], 0.8; in [7], 0.9; in series [9], 1. Besides, the CC50 in [2] was 490 nM; in series [3], 3000 nM; in [6], 400 nM; in series [8], 440 nM. Further, in series [5], the CC50 at 120 h is 400 nM.
On to `COC(=O)c1cc2c([nH]c3ccccc32)c(-c2ccc3c(n2)C(=O)C(NC(=O)C(C)C)=CC3=O)n1`, for which the selectivity ratio in series [1] was determined as 0.5; in series [4], 1.1; in series [7], 1.4; in series [9], 1.1. Also, the CC50 in [2] was determined as 640 nM; in series [3], 1300 nM; in series [6], 660 nM; in series [8], 500 nM. For the same molecule, in series [5], the CC50 at 120 h amounted to 700 nM.
As to `CCCCOC(=O)c1cc2c([nH]c3ccc(F)cc32)c(-c2ccc3c(n2)C(=O)C(NC(C)=O)=CC3=O)n1`, the selectivity ratio stood at 0.3 in [1], 0.8 in series [4], 1.9 in series [7] and 0.9 in [9]. The CC50 in series [2] is 840 nM; in series [3], 2100 nM; in [6], 700 nM; in [8], 330 nM. Further, the CC50 at 120 h in [5] is 620 nM.
For the molecule `CC(=O)NC1=CC(=O)c2ccc(-c3nc(C(=O)OCCN(C)C)c(C)c4c3[nH]c3ccccc34)nc2C1=O`, the selectivity ratio was determined as 0.2 in series [1], 1 in [4], 1.5 in series [7] and 1 in [9]. Besides, the CC50 in [2] was found to be 90 nM; in [3] it was 480 nM; in series [6], 90 nM; in [8] it was 60 nM. Further, the CC50 at 120 h in [5] stood at 90 nM.
Regarding `CC(C)CCOC(=O)c1cc2c([nH]c3ccccc32)c(-c2ccc3c(n2)C(=O)C(NC(=O)CCl)=CC3=O)n1`, the selectivity ratio came to 0.4 in [1], 1.1 in series [4], 2.4 in series [7] and 1 in series [9]. Also, the CC50 worked out at 1200 nM in series [2], 3200 nM in series [3], 1320 nM in series [6] and 560 nM in series [8]. For the same molecule, in [5], the CC50 at 120 h turned out to be 1350 nM.
Regarding `CCCC(=O)NC1=CC(=O)c2ccc(-c3nc(C(=O)OC)cc4c3[nH]c3ccccc34)nc2C1=O`, the selectivity ratio in series [1] turned out to be 0.5; in [4], 1.1; in series [7], 1.4; in series [9], 1.1. Further, the CC50 stood at 640 nM in [2], 1300 nM in series [3], 660 nM in series [6] and 500 nM in series [8]. Besides, the CC50 at 120 h in series [5] is 700 nM.
`COC(=O)c1nc(-c2ccc3c(n2)C(=O)C(NC(=O)CCl)=CC3=O)c2[nH]c3ccccc3c2c1C`: the selectivity ratio in series [1] came to 0.3; in [4] it was 0.8; in series [7], 0.7; in series [9], 1. Moreover, the CC50 in series [2] was found to be 700 nM; in [3], 2000 nM; in [6] it was 580 nM; in series [8], 790 nM. Besides, in [5], the CC50 at 120 h stood at 580 nM.
Take `CC(=O)NC1=CC(=O)c2ccc(-c3nc(C(=O)OCCC(C)C)c(C)c4c3[nH]c3ccccc34)nc2C1=O`: the selectivity ratio in series [1] was found to be 0.6; in series [4], 1.2; in series [7] it was 0.9; in series [9], 1.1. In addition, the CC50 came to 3890 nM in series [2], 7400 nM in series [3], 4300 nM in series [6] and 5000 nM in series [8]. Besides, the CC50 at 120 h in series [5] came to 4160 nM.

The record behind these values is ChEMBL document CHEMBL1144487 (Bioorg Med Chem, 2007).
